This note sets out measurements from ChEMBL document CHEMBL1140631, “Carbonic anhydrases as targets for medicinal chemistry” (Bioorg Med Chem, 2007).

For orientation: Ki means the dissociation constant of the complex between target and ligand, obtained from inhibition or displacement.

The structures appear in SMILES notation.

This assay concerns the target T1, Carbonic anhydrase 4 (Bos taurus, UniProt Q95323).
T1 sequence (Q95323 whole entry): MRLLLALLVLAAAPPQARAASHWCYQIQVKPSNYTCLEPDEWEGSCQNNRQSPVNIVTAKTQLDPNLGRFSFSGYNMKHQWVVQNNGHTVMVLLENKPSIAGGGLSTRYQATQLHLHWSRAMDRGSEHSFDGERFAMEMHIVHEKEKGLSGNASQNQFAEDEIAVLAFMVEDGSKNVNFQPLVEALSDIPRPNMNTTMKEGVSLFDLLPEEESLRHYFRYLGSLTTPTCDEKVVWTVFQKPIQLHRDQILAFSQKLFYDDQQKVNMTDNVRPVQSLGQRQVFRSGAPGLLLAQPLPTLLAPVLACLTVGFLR
In turn, `NS(=O)(=O)c1ccc(CC/N=C/c2ccncc2)cc1` had an inhibitory constant (Ki) of 12 nM.

In turn, `Cc1ccc(S(=O)(=O)NC(=O)Nc2c(S(N)(=O)=O)cc(S(N)(=O)=O)c(Cl)c2Cl)cc1` returned an inhibitory constant (Ki) of 14 nM.

Consider `NS(=O)(=O)c1ccc(CC/N=C/c2cccc([N+](=O)[O-])c2)cc1`, for which the affinity, expressed as Ki, was 140 nM.

In the case of `Cc1ccc(S(=O)(=O)NC(=O)Oc2ccccc2/C=N/CCc2ccc(S(N)(=O)=O)cc2)cc1`, the affinity corresponds to a Ki of 120 nM.

Molecule `NS(=O)(=O)c1ccc(CC/N=C/c2ccccc2OC(=O)NS(=O)(=O)c2ccc(Cl)cc2)cc1` came in with a Ki of 160 nM.

Molecule `NS(=O)(=O)c1ccc(CC/N=C/c2ccc[nH]2)cc1` displayed a Ki of 10 nM.

Molecule `NS(=O)(=O)c1ccc(CC/N=C/c2ccccc2OC(=O)NS(=O)(=O)c2ccccc2)cc1` gave a Ki of 11 nM.

On to `NS(=O)(=O)c1nnc(NC(=O)Nc2ccc(Cl)c(Cl)c2)s1`, for which the Ki was 8 nM.

`Cn1cccc1/C=N/Cc1ccc(S(N)(=O)=O)cc1` yielded a Ki of 10 nM.

Molecule `Cn1cccc1/C=N/CCc1ccc(S(N)(=O)=O)cc1` came in with a Ki of 8 nM.

As for `NS(=O)(=O)c1ccc(CCNC(=S)Nc2ccccc2)cc1`, the Ki came out at 70 nM.

For `NC(=O)Nc1ccc(S(=O)(=O)Nc2ccc(S(N)(=O)=O)cc2)cc1`, affinity was put at a Ki of 20 nM.

On to `NS(=O)(=O)c1ccc(CCNC(=S)NC(=O)Nc2ccc(Cl)c(Cl)c2)cc1`, for which affinity was put at a Ki of 24 nM.

For the molecule `NC(=O)Nc1ccc(S(=O)(=O)Nc2cccc(S(N)(=O)=O)c2)cc1`, the affinity corresponds to a Ki of 25 nM.
